Measurements reported in BindingDB's records for patent US11034694 (Nimbus Saturn, 2021).

The molecules below were run against Mitogen-activated protein kinase kinase kinase kinase 1 (Homo sapiens, UniProt Q92918) (assay: Biochemical Enzyme Assay).
Experimental: HPK1 biochemical enzyme assay: HPK1 enzyme inhibition was measured using a microfluidic mobility shift assay. […] Test compounds were titrated in ten point curves (top final assay concentration 3 μM), and preincubated with enzyme/substrate mix for 30 min prior to initiation of the reaction by addition of ATP (1 mM final concentration) and substrate (1 μM final concentration; Carna Biosciences) diluted in assay buffer supplemented by MgCl2 (final assay concentration of 5 mM). Following 60 min incubation at RT, the reaction was terminated by addition of 60 μl/well termination buffer (Carna Biosciences) and signal determination using a Caliper EZ Reader (Perkin Elmer, UK).

Chain of Mitogen-activated protein kinase kinase kinase kinase 1 (Q92918 whole entry): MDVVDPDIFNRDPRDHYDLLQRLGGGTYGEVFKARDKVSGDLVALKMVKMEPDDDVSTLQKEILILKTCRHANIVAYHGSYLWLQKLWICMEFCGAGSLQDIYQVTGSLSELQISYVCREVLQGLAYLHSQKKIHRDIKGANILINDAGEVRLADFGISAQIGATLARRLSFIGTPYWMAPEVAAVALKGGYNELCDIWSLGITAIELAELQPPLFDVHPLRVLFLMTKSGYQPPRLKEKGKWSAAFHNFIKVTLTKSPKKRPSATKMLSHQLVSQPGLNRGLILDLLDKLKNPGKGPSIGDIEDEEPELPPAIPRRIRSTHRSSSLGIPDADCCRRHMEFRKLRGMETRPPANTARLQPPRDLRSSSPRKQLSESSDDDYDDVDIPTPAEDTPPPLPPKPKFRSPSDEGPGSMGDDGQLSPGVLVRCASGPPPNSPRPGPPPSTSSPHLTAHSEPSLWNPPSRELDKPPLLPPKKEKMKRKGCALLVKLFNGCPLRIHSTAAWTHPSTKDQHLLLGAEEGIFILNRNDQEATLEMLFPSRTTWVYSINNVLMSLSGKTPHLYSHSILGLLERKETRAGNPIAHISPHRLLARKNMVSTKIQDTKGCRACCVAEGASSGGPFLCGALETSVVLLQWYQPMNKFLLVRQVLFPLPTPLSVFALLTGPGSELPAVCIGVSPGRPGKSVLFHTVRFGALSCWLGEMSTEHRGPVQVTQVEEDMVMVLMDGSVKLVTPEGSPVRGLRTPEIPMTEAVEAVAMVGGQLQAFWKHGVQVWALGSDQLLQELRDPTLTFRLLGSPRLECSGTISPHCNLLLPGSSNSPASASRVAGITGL

Row | IC50 [nM] | Structure (SMILES)
1 | < 100 | CNC1CN(c2cccc(Cc3cnc(-c4ccnc5c4ccn5C)c4c3C(=O)NC4)n2)C1 [US11034694, Compound I-449]
2 | < 100 | Cn1ccc2c(-c3ncc(Nc4ccc(N5C[C@H]6COC[C@@H]5C6)cn4)c4c3CNC4=O)ccnc21 [US11034694, Compound I-309]
3 | < 100 | Cc1ccn2c(-c3ccc(Nc4ccc(N5CCO[C@@H](CP)C5)cn4)c4c3CNC4=O)cnc2c1F [US11034694, Compound I-460]
